Holding throughout (assay type): biochemical
The target in assay [1] is T1, BACINT_01033-CE1 (Bi1033-CE1) (Bacteroides intestinalis, UniProt B3C969).
T1 construct: dimer; N-terminal Ig-like domain, esterase domain residues 126-383
The assay can be described thus: ferulic acid release, HPLC-DAD. The conditions noted are these: 200 uM substrate, 50 nM enzyme, 50 mM sodium citrate, 150 mM NaCl, pH 6.5, 37 °C, 10 min.

The target of assay [2] is T2, BACINT_01038-CE6/CE1 (Bi1038-CE6/CE1) (Bacteroides intestinalis, UniProt B3C974).
T2 construct: two modules (CE6, CE1)
T2 sequence (B3C974 59-680): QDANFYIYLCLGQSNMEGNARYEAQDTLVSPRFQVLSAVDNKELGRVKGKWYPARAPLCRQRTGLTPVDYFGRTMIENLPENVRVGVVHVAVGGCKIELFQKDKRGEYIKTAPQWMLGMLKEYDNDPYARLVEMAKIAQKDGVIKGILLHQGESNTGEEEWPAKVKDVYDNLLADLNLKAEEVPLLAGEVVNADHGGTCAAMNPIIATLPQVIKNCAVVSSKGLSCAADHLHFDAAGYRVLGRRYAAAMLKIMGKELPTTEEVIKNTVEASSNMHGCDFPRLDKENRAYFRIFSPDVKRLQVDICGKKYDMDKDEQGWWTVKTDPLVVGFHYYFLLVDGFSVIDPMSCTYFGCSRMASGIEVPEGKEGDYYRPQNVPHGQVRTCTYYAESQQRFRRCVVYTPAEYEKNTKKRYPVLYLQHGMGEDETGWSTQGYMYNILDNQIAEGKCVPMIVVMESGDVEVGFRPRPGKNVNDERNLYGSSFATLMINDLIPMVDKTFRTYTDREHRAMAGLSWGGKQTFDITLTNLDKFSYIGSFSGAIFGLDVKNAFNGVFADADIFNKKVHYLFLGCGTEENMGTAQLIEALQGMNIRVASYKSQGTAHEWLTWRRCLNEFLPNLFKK
The assay can be described thus: ferulic acid release, HPLC-DAD. The conditions noted are these: […] substrate, […] enzyme, […] sodium citrate, […] NaCl, pH […] °C, […] min.

For assay [3], the target named is T3, BACINT_01042-GH3 (Bi1042-GH3) (Bacteroides intestinalis, UniProt B3C978).
T3 sequence (B3C978 19-862): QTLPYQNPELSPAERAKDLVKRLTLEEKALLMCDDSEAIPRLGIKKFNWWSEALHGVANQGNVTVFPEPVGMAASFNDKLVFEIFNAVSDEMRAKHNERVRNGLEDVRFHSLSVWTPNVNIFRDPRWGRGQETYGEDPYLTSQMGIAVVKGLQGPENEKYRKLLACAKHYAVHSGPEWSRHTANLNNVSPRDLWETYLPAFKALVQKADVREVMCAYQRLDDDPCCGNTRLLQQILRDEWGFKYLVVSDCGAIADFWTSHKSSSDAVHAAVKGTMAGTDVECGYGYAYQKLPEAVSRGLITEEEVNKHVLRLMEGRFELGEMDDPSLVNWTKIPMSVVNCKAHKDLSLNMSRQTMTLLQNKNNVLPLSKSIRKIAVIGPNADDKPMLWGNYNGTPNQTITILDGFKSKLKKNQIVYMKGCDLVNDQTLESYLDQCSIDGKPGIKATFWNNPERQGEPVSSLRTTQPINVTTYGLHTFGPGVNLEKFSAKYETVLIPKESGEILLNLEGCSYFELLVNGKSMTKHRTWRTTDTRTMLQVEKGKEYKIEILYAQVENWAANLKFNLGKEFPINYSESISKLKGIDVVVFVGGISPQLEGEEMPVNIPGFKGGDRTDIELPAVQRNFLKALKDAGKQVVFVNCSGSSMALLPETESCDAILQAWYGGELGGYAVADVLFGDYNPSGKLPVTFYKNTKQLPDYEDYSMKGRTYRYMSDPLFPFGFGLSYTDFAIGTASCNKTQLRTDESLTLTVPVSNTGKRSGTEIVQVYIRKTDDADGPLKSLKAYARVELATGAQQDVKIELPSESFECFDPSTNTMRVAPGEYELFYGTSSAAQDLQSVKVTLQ
The assay can be described thus: xylose release, HPAEC-PAD. The conditions noted are these: pH […] °C, […] h, […] enzyme.

Assay [4] addresses T4, BACINT_01039-CE1 (Bi1039-CE1) (Bacteroides intestinalis, UniProt B3C975).
T4 construct: dimer; crystal structure residues 25-382, esterase domain 126-382
The assay can be described thus: pNP release at […] nm. As to conditions: 1 mM substrate, 50 nM enzyme, 0.1 M MOPS pH 7.5, 37 °C.

The target of assay [5] is T2, BACINT_01038-CE6/CE1 (Bi1038-CE6/CE1). The assay can be described thus: pNP release at […] nm. As to conditions: […] substrate, […] enzyme, […] MOPS pH […] °C.

The values below come from PMC7815789, “Degradation of complex arabinoxylans by human colonic Bacteroidetes” (Nature Communications, 2021).

Molecules are shown by their SMILES.

T4 sequence (B3C975 25-382): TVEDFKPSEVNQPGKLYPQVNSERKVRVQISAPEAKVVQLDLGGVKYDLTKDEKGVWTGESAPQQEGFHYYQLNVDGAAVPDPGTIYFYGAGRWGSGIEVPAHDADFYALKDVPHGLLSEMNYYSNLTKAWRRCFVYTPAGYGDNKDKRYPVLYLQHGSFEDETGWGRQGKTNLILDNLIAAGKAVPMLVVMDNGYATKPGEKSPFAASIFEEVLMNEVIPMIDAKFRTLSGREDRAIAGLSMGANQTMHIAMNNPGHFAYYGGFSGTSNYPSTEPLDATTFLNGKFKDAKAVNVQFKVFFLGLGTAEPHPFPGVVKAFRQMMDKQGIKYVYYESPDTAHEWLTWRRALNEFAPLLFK
T1 sequence (B3C969 24-387): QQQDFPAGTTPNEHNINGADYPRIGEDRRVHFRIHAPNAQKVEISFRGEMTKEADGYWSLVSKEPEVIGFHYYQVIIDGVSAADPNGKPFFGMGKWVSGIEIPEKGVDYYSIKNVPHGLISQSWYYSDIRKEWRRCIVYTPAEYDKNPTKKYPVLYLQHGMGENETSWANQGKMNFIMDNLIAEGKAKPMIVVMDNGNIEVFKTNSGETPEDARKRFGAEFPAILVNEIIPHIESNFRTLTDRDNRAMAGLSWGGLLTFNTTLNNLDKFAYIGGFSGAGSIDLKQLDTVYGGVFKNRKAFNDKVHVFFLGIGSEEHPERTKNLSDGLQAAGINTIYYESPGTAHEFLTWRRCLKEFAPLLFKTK

As for `COc1cc(/C=C/C(=O)OC[C@@H]2OC(O)[C@H](O)[C@H]2O)ccc1O` (stereo partly drawn) [FA, feruloylated monosaccharide (FA)], in assay [1], the “ferulic acid release, HPLC-DAD” value is “exhibits low ferulic acid cleavage activity on feruloylated monosaccharide (FA)”.

Consider `COc1cc(/C=C/C(=O)OC[C@@H]2O[C@@H](O[C@@H]3[C@@H](O)[C@H](O[C@@H]4COC(O)[C@H](O)[C@H]4O)OC[C@H]3O)[C@H](O)[C@H]2O)ccc1O` (stereo partly drawn) [FAXX, feruloylated trisaccharide (FAXX)], for which, in assay [2], the “ferulic acid release, HPLC-DAD” value was “showed some activity on both FA and FAXX”.

With `OC1OC[C@@H](O[C@@H]2OC[C@@H](O)[C@H](O)[C@H]2O)[C@H](O)[C@H]1O` (stereo partly drawn) [X2, xylobiose], in assay [3], the “xylose release, HPAEC-PAD” value is “Bi1042-GH3 cleaves xylo-oligosaccharides to xylose or X1”.

`OC1OC[C@@H](O[C@@H]2OC[C@@H](O[C@@H]3OC[C@@H](O)[C@H](O)[C@H]3O)[C@H](O)[C@H]2O)[C@H](O)[C@H]1O` (stereo partly drawn) [X3, xylotriose]: the “xylose release, HPAEC-PAD” value in assay [3] is on record as “Bi1042-GH3 cleaves xylo-oligosaccharides to xylose or X1”.

Regarding `CC(=O)Oc1ccc([N+](=O)[O-])cc1` [pNP acetate], the “pNP release at 400 nm” value in assay [4] is “activity of the wild-type Bi1039-CE1, observed with pNP acetate as the substrate”; in assay [5], “activities on the synthetic substrates were from Bi1040-FAE and Bi1038-CE6/CE1, respectively”.
